Test results reported in patent US8415156B2, “Recombinant laminin-521” (Biolamina AB, priority 2010, dated 2013).

How the values were obtained:
Oct4 and Nanog = assay: Real-time quantitative RT-PCR of pluripotency markers (Example 1); assay type: cell-based, human; conditions: after several single cell dissociation passages
Procedure: Total RNA was isolated and cDNA was synthesized as described in Rodin et al., Nature Biotechnol., vol. 28, pp. 611-615 (2010). Real-time quantitative RT-PCR Taqman assays were performed using the Applied Biosystems 7300 Real-Time PCR System. All reactions were done in quadruplicate with predeveloped gene expression assay mix (Applied Biosystems) containing primers and a probe for the mRNA of interest. Additional reactions for each experiment included predeveloped gene expression assay mix for GAPDH, used to normalize the RNA input. All data were analyzed with 7300 System SDS Software version 1.4.

HS181, HS401, H1 cells = assay: Long-term self-renewal of hES cells on LN-521 (Example 2); assay type: cell-based, human
Procedure: Human ES cells of HS181 and HS401 were cultured on LN-521-coated culture dishes in O3 medium (described in Rodin et al., Nature Biotechnol., vol. 28, pp. 611-615 (2010) with pH was adjusted to 7.35), mTeSR1 (STEMCELL Technologies) and chemically defined and xeno-free TeSR2 (STEMCELL Technologies) at 37° C., 5% CO2. Initially, cells of the lines were transferred onto a LN-521 coating from a human feeder cell layer by careful scratching using a sterile knife with subsequent trypsinization, or the cells were trypsinized into single cell suspension from a LN-511 coating. The cells were provided once a day with fresh medium pre-warmed in an incubator for one hour, except for the first day after plating, when only a few drops of fresh medium were added. Cells were routinely passed once in 10-12 days by exposure to Trypsin/EDTA (GIBCO Invitrogen Corporation, Paisley, Scotland) for 5 minutes at 37° C., 5% CO2. They were then gently pipetted to break into single-cell suspension and a Defined Trypsin Inhibitor (GIBCO Invitrogen) was added. The cell suspension was centrifuged at 25 rcf for 4 minutes, the supernatant was discarded, the cell pellet was resuspended in prewarmed O3 medium, and the cells were then passed through a 40 μm sieve. Subsequently, the cells were plated on new LN-521-coated dishes at a concentration of 30,000 cells/cm^2 in 1:25-1:30 split ratios. Control cells of the same line were cultured on Matrigel (STEMCELL Technologies) and LN-511 in O3 medium as described previously.^9
For defined and xeno-free cultures, TeSR2 (STEMCELL Technologies) medium and defined free from any animal derived component TrypLE™ Select (GIBCO Invitrogen Corporation, Paisley, Scotland) enzyme were used. The cells were passed every 10-14 days by exposure to TrypLE™ Select for 4-5 minutes at 37° C., 5% CO2. Then, the enzyme was carefully aspirated and prewarmed TeSR2 medium was added. After that, the cells were gently pipetted to break into single-cell suspension, centrifuged, the supernatant was discarded, and the cell pellet was resuspended in prewarmed TeSR2. The cells were then passed through a 40 μm sieve and plated on a fresh LN-521 coated dish.

hES cells = assay: In vivo imaging and migration assay; assay type: cell-based, human
Procedure: 24-well plates were coated by extracellular matrix proteins and blocked by O3 medium containing bovine serum albumin. The ES cells were plated at cell density of 30,000-40,000 cells/cm^2 onto extracellular matrix-coated plates and left to adhere for half an hour in a cell incubator. After that, the plate was transferred into high content imaging system Operetta (PerkinElmer) equipped with environmental control unit, which allowed to keep 37° C., 5% CO2. For two movies that were made, the brightfield images were taken once in 15 minutes during 24 hours after plating using Harmony software (PerkinElmer), exported, and analyzed using ImageJ software (NIH, the US). For migration assay the images were taken every seven minutes during 18 hours after plating. Images acquired between the fifth and seventh hours after plating were analyzed using MTrackJ plug-in (University Medical Center, Rotterdam, The Netherlands). 100 attached cells on each coating were traced and mean distances from the current to the previous point of the track were calculated. Error bars show standard error of the mean s.e.m. (n=100).

Integrin α6β1 = Integrin α6β1 (Homo sapiens, UniProt P05556+P23229); conditions: cited from earlier work
Chain of Integrin α6β1 (P23229 24-1130): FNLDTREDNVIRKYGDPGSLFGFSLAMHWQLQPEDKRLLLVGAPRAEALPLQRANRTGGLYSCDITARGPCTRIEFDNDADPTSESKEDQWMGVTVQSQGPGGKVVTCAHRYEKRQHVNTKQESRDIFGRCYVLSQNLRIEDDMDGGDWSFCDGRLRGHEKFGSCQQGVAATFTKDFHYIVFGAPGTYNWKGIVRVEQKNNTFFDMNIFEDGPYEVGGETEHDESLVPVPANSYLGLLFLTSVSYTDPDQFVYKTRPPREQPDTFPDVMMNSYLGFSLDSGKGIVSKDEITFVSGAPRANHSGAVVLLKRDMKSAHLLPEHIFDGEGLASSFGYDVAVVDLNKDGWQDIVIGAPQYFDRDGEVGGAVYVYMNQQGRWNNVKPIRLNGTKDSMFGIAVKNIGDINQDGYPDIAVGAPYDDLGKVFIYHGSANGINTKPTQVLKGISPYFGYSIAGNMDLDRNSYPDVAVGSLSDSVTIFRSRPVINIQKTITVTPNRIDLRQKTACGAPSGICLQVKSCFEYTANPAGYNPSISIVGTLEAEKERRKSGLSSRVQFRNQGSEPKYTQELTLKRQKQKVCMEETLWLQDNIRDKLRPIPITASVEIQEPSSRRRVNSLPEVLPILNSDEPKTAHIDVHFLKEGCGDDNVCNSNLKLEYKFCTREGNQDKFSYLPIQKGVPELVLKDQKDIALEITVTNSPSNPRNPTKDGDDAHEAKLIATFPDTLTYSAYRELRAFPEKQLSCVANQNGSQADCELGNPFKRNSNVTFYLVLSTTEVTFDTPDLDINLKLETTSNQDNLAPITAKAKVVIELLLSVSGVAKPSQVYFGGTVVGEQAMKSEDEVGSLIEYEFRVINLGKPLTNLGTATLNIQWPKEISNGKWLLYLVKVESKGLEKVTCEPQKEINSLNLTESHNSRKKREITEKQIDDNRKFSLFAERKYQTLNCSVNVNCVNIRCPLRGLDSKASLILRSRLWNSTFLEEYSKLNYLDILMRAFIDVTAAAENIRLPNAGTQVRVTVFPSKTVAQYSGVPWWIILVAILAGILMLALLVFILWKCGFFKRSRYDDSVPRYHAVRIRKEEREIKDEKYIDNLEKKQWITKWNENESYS
Chain of Integrin α6β1 (P05556 21-798): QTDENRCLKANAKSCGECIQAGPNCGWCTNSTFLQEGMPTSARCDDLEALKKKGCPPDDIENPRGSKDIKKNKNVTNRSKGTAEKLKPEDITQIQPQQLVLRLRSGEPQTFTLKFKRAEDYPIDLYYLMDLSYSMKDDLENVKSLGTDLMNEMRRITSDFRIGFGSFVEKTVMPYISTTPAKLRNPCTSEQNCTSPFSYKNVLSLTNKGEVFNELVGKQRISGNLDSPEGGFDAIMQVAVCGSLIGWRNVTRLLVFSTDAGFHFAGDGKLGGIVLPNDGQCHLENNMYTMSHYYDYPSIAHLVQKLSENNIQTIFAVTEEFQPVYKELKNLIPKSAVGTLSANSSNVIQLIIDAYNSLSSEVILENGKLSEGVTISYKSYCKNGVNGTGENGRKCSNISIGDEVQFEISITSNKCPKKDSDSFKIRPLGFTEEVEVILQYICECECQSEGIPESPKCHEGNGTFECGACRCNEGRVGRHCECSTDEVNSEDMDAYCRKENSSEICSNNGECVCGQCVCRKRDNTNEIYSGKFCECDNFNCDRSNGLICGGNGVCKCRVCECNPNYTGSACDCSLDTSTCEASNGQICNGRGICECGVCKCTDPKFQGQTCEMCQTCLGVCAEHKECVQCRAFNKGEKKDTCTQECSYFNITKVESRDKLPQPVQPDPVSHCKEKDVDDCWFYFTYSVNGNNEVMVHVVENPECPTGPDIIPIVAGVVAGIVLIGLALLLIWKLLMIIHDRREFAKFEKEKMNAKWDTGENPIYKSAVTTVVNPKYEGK

## LN-521: protein formed by joining α5, β2 and γ1 chains together; human recombinant, produced in HEK293 cells
Oct4 and Nanog
  number of mRNA transcripts of Oct4 and Nanog compared with Matrigel: higher numbers of transcripts
HS181, HS401, H1 cells; O3 medium, 2 months
  passages of proliferation, HS401 cells: ≥ 5 passages
HS181, HS401, H1 cells; O3 medium, 6 months
  passages of proliferation, H1 cells: ≥ 15 passages
HS181, HS401, H1 cells; O3 medium, 9 months
  passages of proliferation, HS181 cells: at least 24 passages
HS181, HS401, H1 cells; TeSR2, TrypLE Select, xeno-free, 1.5 months
  passages cultured, HS401 cells: 4 passages
HS181, HS401, H1 cells; TeSR2, TrypLE Select, xeno-free, 5 months
  passages cultured, H1 cells: 12 passages
HS181, HS401, H1 cells; TeSR2 medium and TrypLE Select
  plating efficacy after a passage in TeSR2 compared with O3 or mTeSR1 media: slightly lower
hES cells
  migration of cells (in vivo imaging) compared with Matrigel: much faster
hES cells; compared with Matrigel, LN-111, LN-511
  motility of hES cells between the fifth and seventh hours after plating: higher than that of the cells on other coatings
Integrin α6β1
  binding affinity of integrin α6β1: higher than that for LN-111
